The NIST ThermoML archive (doi:10.1016/j.jct.2019.01.018)
Numbers after ± are expanded uncertainties.

Assay: xn = mol fraction of the nth substance listed
Conditions: 298.15 K, 101.1 kPa, Liquid; for viscosity: Falling or rolling sphere viscometry; for mass density: Vibrating tube method

| SMILES | viscosity (x1 = 0.333) | mass density (x1 = 0.333) | viscosity (x2 = 0.333) | mass density (x2 = 0.333) |
| --- | --- | --- | --- | --- |
| C[N+](C)(C)CCO.[Cl-] [choline chloride] + OCCO | 39.45 ± 8.3 mPa·s | 1120.4 ± 15 kg/m3 | – | – |
| NC(N)=O [urea] + C[N+](C)(C)CCO.[Cl-] | – | – | 1348.3 ± 320 mPa·s | 1210.4 ± 16 kg/m3 |
| C[N+](C)(C)CCO.[Cl-] [choline chloride] + OCC(O)CO | 317.14 ± 69 mPa·s | 1191.3 ± 16 kg/m3 | – | – |
